Test results: patent US4766116A, “Diaryl butyric acid derivative and pharmaceutical use thereof” (Suntory Limited, priority 1984, dated 1988)
Counter-ions that a name gives are not always drawn.

Assays:
Male ddY mice [1] = assay: Global Ischemia Activity (gasping time after decapitation); format: in vivo; details: for minimal effective dose: Mus musculus, ip, 30 minutes before decapitation, vs saline control, read-out: Global Ischemia EDmin (Minimum effective dose); for extension of the gasping time: at a dose of 50 mg/kg or less, injected
Procedure: Male ddY mice having a body weight of 22 to 30 g were used (i.e., 6 mice in one group). The sample compound prepared in the Synthesis Example 1 or 7 was intraperitoneally injected into the mice and the mice were decapitated 30 minutes after the injection. After decapitation, the gasping times were determined. The results were compared with a control group to which only the saline was injected.

Male ddY mice [2] = assay: Hypobaric Hypoxia Activity (survival time at 180 mmHg); format: in vivo; details: for minimal effective dose: Mus musculus, ip, 30 minutes before evacuation to 180 mmHg, vs physiological saline, read-out: Hypobaric Hypoxia EDmin (Minimum effective dose)
Procedure: Male ddY mice having a body weight of 22 to 30 g were used (i.e., 7 to 10 mice in one group). The mice were […] sample compound prepared in the Synthesis Example 1 or 7 was intraperitoneally injected into the mice. The desiccator was evacuated 30 minutes after the injection and the time from the start of the evacuation to the termination of breathing by the mice was determined to be the survival time. If a mouse was still alive 15 minutes after exposure to the hypoxia, the survival time was assumed to be 15 minutes.

Male ddY mice [3] = assay: Normobaric Hypoxia Activity (survival time in 96% N2 and 4% O2); format: in vivo; details: ip, 30 minutes before
Procedure: Male ddY mice having a body weight of 22 to 30 g were used (i.e., 7 to 10 mice in one group). The sample compound prepared in the Synthesis Example 1 or 7 was intraperitoneally injected into the mice and, 30 minutes later, the mice were placed in a desiccator having a volume of about 1 liter and filled with a gas mixture of 96% N2 and 4% O2. The survival time up to the termination of breathing by the mice was determined. During the test, the N2 --O2 gas mixture was continuously supplied at a rate of 3 l/min. When the survival time was more than 15 minutes, the survival time was assumed to be 15 minutes. The results were compared with a control group, to which only a physiological saline was injected.

Male mice = assay: Hemicholinium No. 3 (HC-3) Induced Anoxia Activity (survival time); format: in vivo; details: Mus musculus; ip, 15 minutes before 5 mg/kg hemicholinium No. 3 into tail vein; read-out: HC-3 Induced Anoxia EDmin (Minimum effective dose)
Procedure: Male mice having a body weight of 22 to 30 g were used (i.e., 7 to 10 mice in one group). The sample compound prepared in the Synthesis Example 1 or 7 was intraperitoneally injected into the mice and, 15 minutes later, 5 mg/kg of hemicholinium No. 3 was injected into the tail vein of the mice. The time from the injection of hemicholinium No. 3 to the termination of breathing by the mice was determined to be the survival time. The results were compared with that of a control group to which only a physiological saline was injected.

rat brain homogenate = assay: Antilipid Peroxidation Activity (A), rat brain homogenate, TBA reaction; format: biochemical, Male Wister rats; details: at 10^-4 M, 37° C., 30 minutes
Procedure: (A) Male Wister rats having a body weight of 350 to 380 g were used. A rat was decapitated and the whole brain other than the cerebellum was homogenized in 10 times volume of ice cooled 50 mM buffered saline (PBS) having a pH of 7.4. The homogenized mixture was then centrifugally separated and the resultant supernatant frozen at a temperature of -30° C. The frozen specimen was melted in flowing water and was then diluted with 3 times volume PBS to prepare the diluted homogenate.
A 10 μl of a solution of the sample compound prepared in the Synthesis Example 1 or 7 was added to 1 ml of the diluted homogenate obtained above and the mixture was incubated at a temperature of 37° C. for 30 minutes. […]
As is the case of the test compound solution, 10 μl of the standard solution of tetramethoxypropane (TMP) was prepared and was added to the reaction mixture in amounts of 0 to 10 nmole/tube. […] Thereafter, the resultant layers were stabilized for 10 minutes at 2,000 rpm and the absorbance of the organic layer at 532 nm or the fluorescence intensity of the organic layer at 553 nm (excited at 515 nm) were determined. The lipid peroxide content was determined and represented a nmole number of malon dialdehyde (MDA) per mg of protein. The protein was determined by a Lawry method (i.e., Lawry et al., J. Biol. Chem., 193, 265 (1951)).

[4] = tested on: lipid peroxides in the blood serum; assay: Antilipid Peroxidation Activity (B), lipid peroxides in blood serum of alloxan-injected mice; format: in vivo, Male ddY mice; details: ip, 24 hours after alloxan 85 mg/kg
Procedure: (B) Male ddY mice having a body weight of 24 to 27 g were used (i.e., 5 to 9 mice in one group). After 16 to 17 hours nestia, 85 mg/kg of alloxan was rapidly injected into the tail vein of the mice. After injecting the alloxan, the mice were subjected to free feeding and free water intaking and, 24 hours later, the sample compound was intraperitoneally injected into the mice. After an additional 24 hours, anesthesia was applied to the mice with ether and the blood of alvine aorta and cava was sampled. The amounts of the lipid peroxides in the blood serum were quantitatively measured according to a Yagi's method (i.e., K. Yagi, Biochem. Med., 15, 212, 1976).
The results were compared with that of a control group to which only a physiological saline was injected.

Male ddY mice [5] = assay: Scopolamine Amnesia Activity (step-through passive avoidance learning); format: in vivo; details: Mus musculus; ip immediately after first session; scopolamine 0.5 mg/kg hypodermically; retention test 24 hours later; read-out: Scopolamine Amnesia EDmin (Minimum effective dose)
Description: Ten male ddY mice having a body weight of 22 to 30 g were used as one group. A slit was located between a light room and a dark room. In the dark room, an arrangement was made whereby an electric shock was given to the feet by an electric current. Thus, the behavior of the mice in relation to step-through to the dark room was studied. The mice were amnesically treated with an administration of scopolamine with or without the injection of the sample compound 1 or 7 and the time taken to avoid step-through by the mice to the dark room was determined by the so-called step-through passive avoidance learning method. The electric current used was 0.6 mA. The scopolamine was hypodermically injected in an amount of 0.5 mg/kg at 20 minutes prior to the first session and the sample compound was intraperitoneally injected immediately after the first session. The retention test (i.e., the second session) was carried out 24 hours later.

Row | SMILES | inhibition of the formation of the lipid peroxides ([4]; at a dose of 10 mg/kg) | inhibition of the formation of the lipid peroxides ([4]; at a dose of 50 mg/kg) | extension of the gasping time (Male ddY mice [1]) | other results
1 | COc1ccc(O)c(C(CCC(=O)N2CCN(C)CC2)c2ccccc2)c1 (stereo not shown) [Example 1, 4-(2-hyddroxy-5-methoxy)phenyl-4-phenyl-1-(4-methyl)piperazinyl-1-oxobutane] | caused inhibition |  |  | minimal effective dose (Male ddY mice [1]): 25 mg/kg; minimal effective dose (Male ddY mice [2]): 50 mg/kg; minimal effective dose (Male ddY mice [3]; Mus musculus, read-out: Normobaric Hypoxia EDmin (Minimum effective dose)): 50 mg/kg; minimal effective dose (Male mice): 50 mg/kg; Antilipid Peroxidation, % inhibition of the rat brain homogenate (rat brain homogenate): 95.4%; minimal effective dose (Male ddY mice [5]): 50 mg/kg
2 | COc1ccc(O)c(C(CCC(=O)N2CCCCC2)c2ccccc2)c1 (stereo not shown) [Example 3] |  | significant difference in the inhibition of the formation of the lipid peroxides |  | 
3 | COc1ccc(O)c(C(CCC(=O)N2CCN(c3ccccc3)CC2)c2ccccc2)c1 (stereo not shown) [Example 4] | caused inhibition |  |  | 
4 | COc1ccc(O)c(C(CCC(=O)N(C)Cc2ccccc2)c2ccccc2)c1 (stereo not shown) [Example 6] | caused inhibition |  | significant difference in the extension of the gasping time | 
5 | COc1ccc(O)c(C(CCC(=O)N2CCN(CCO)CC2)c2ccccc2)c1 (stereo not shown) [Example 7] |  |  |  | minimal effective dose (Male ddY mice [1]): 50 mg/kg; minimal effective dose (Male ddY mice [2]): 50 mg/kg; Normobaric Hypoxia EDmin (Minimum effective dose) (Male ddY mice [3]): Inactive at 50 mg/kg, ip; minimal effective dose (Male mice): 25 mg/kg; Antilipid Peroxidation, % inhibition of the rat brain homogenate (rat brain homogenate): 88.0%; minimal effective dose (Male ddY mice [5]): 25 mg/kg
6 | COc1ccc(O)c(C(CCC(=O)N2CCSCC2)c2ccccc2)c1 (stereo not shown) [Example 8] |  |  |  | inhibition of the formation of the lipid peroxides ([4]; at a dose of 5 mg/kg): caused inhibition
7 | COc1ccc(O)c(C(CCC(=O)NCc2ccccn2)c2ccccc2)c1 (stereo not shown) [Example 9] | caused inhibition |  |  | 
8 | COc1ccc(O)c(C(CCC(=O)NN2CCOCC2)c2ccccc2)c1 (stereo not shown) [Example 12] |  | significant difference in the inhibition of the formation of the lipid peroxides |  | 
9 | COc1ccc(O)c(C(CCC(=O)N2CCCC2)c2ccccc2)c1 (stereo not shown) [Example 13] |  | significant difference in the inhibition of the formation of the lipid peroxides |  | 
10 | CCOC(=O)c1ccc(Oc2cccc(OC)c2)c(NC(=O)CCC(c2ccccc2)c2cc(OC)ccc2O)c1 (stereo not shown) [Example 15] |  |  | significant difference in the extension of the gasping time | 
11 | COc1ccc(O)c(C(CCC(=O)N2CCCN(C)CC2)c2ccccc2)c1 (stereo not shown) [Example 18] |  | significant difference in the inhibition of the formation of the lipid peroxides |  | 
12 | COc1ccc(O)c(C(CCC(=O)NCCN2CCCCC2)c2ccccc2)c1 (stereo not shown) [Example 19, 4-(2-hydroxy-5-methoxy)phenyl-4-phenyl-1-(2-piperidinyl)ethylamino-1-oxobutane hydrochloride] |  |  | significant difference in the extension of the gasping time | survival time (hypobaric hypoxia) compared with the control group (Male ddY mice [2]; dose not clearly stated): reduced the survival time
13 | COc1ccc(O)c(C(CCC(=O)N2CCNCC2)c2ccccc2)c1 (stereo not shown) [Example 28, 4-(2-hydroxy-5-methoxy)phenyl-4-phenyl-1-piperazinyl-1-oxobutane] |  | significant difference in the inhibition of the formation of the lipid peroxides |  | 
14 | COc1ccc(O)c(C(CCC(=O)N2CCN(C(=O)CCC(c3ccccc3)c3cc(OC)ccc3O)CC2)c2ccccc2)c1 (stereo not shown) [Example 29, N,N'-bis[(4-(2-hydroxy-5-methoxy)phenyl-4-phenyl)-1-oxobutyl]piperazine] | caused inhibition |  |  | 
15 | COc1ccc(O)c(C(CCC(=O)N2CCCNCC2)c2ccccc2)c1 (stereo not shown) [Example 30, 4-(2-hydroxy-5-methoxy)phenyl-4-phenyl-1-homopiperazinyl-1-oxobutane] |  |  | significant difference in the extension of the gasping time | 
16 | COc1ccc(O)c(C(CCC(=O)N2CCCN(C(=O)CCC(c3ccccc3)c3cc(OC)ccc3O)CC2)c2ccccc2)c1 (stereo not shown) [Example 31, N,N'-bis-[(4-(2-hydroxy-5-methoxy)phenyl-4-phenyl)-1-oxobutyl]homopiperazine] |  | significant difference in the inhibition of the formation of the lipid peroxides |  | 
17 | COc1ccc(O)c(C(CCC(=O)NCCN2CCNCC2)c2ccccc2)c1 (stereo not shown) [Example 32] |  |  | significant difference in the extension of the gasping time | 
18 | COc1ccc(O)c(C(CCC(=O)NCCN2CCN(C(=O)CCC(c3ccccc3)c3cc(OC)ccc3O)CC2)c2ccccc2)c1 (stereo not shown) [Example 33, 4-(2-hydroxy-5-methoxy)phenyl-1-[4-(2-(4-(2-hydroxy-5-methoxy)phenyl-4-phenyl-1-oxo)aminoethyl)piperadinyl]-1-oxobutane] |  | significant difference in the inhibition of the formation of the lipid peroxides | significant difference in the extension of the gasping time | extension of the survival time (hypobaric hypoxia) (Male ddY mice [2]; at a dose of 50 mg/kg or less, injected): significant difference in the extension of the survival time
19 | COc1ccc(O)c(C(CCC(=O)OCCN(C)C)c2ccccc2)c1 (stereo not shown) [Example 36, 4-(2-hydroxy-5-methoxy)phenyl-4-phenyl-1-(2-dimethylamino)ethyloxy-1-oxybutane] | caused inhibition |  |  | 
